In brackets after ≈: the same amount, converted by molar mass. Several values for one entry are separate records, joined by “and”; a condition that tells them apart may be missing. Equal values may be shown once.
Columns and labels:
[1] = system: individual Aspergillus spp. (Table 15, species not named); assay: MIC testing (CLSI M38-A2), Table 15; format: cell-based; conditions: Aspergillus sp. of Table 15, caspofungin read as MEC
[2] = system: C. krusei strains; assay: MIC testing (CLSI M27-A3); format: cell-based
[3] = system: Candida albicans; assay: MFC determination; format: cell-based
[4] = system: Penicillium strains; assay: MIC testing (CLSI M38-A2); format: cell-based, Penicillium spp.; conditions: Penicillium
[5] = system: C. glabrata strains; assay: MIC testing (CLSI M27-A3); format: cell-based; design: MIC: unit not given beside the values
[6] = system: Cr. neoformans strains; assay: MIC testing (CLSI M27-A3, YNB, 72 h); format: cell-based, Cryptococcus neoformans
[7] = system: all Candida strains; assay: MIC testing (CLSI M27-A3), summary; format: cell-based
[8] = system: C. albicans SC5314; assay: In vitro activity (MIC) against the infecting strain, Example 18; format: cell-based, Candida albicans; conditions: Candida albicans, minimum effective concentration, read-out: MIC read as MEC
[9] = system: Candida albicans; assay: MIC testing (CLSI M27-A3); format: cell-based; design: MIC: unit not given beside the values; conditions: for MIC Range: in µg/mL
[10] = system: individual Aspergillus spp. (Table 14, species not named); assay: MIC testing (CLSI M38-A2), Table 14; format: cell-based; conditions: Aspergillus sp. of Table 14, caspofungin read as MEC
[11] = system: all Candida strains; assay: MFC determination, summary; format: cell-based
[12] = system: C. tropicalis; assay: MIC testing (CLSI M27-A3); format: cell-based
[13] = system: A. fumigatus AF91; assay: In vitro activity (MIC) against the infecting strain, Example 17; format: cell-based, Aspergillus fumigatus; conditions: Aspergillus fumigatus, minimum effective concentration, read-out: MIC read as MEC
Method: Minimum Inhibitory Concentration: MIC testing was performed according to the Clinical and Laboratory Standards Institute (CLSI) M27-A3 and M38-A2 standards for the susceptibility testing of yeasts and filamentous fungi, respectively (Cryptococcus isolates were incubated for 72 h). For yeast strains, the incubation temperature and time were 35° C. and 24-48 h, respectively, and the inoculum size was 0.5-2.5×10^3 CFU/ml. For filamentous strains, the inoculum size was 0.4-5×10^4 CFU/ml, and the incubation time was strain and drug specific. RPMI 1640 was the test medium throughout, with the exception of the use of YNB for Cryptococcus. Inhibition endpoints for compound 1A were recorded at 50% and 100% after both 24 h and 48 h incubation; caspofungin results against Aspergillus strains were read as minimum effective concentrations (MEC), the lowest concentration that leads to small, rounded, compact growth as compared to the confluent growth of the control.

[14] = system: individual Aspergillus spp. (Table 12, species not named); assay: MIC testing (CLSI M38-A2), Table 12; format: cell-based; conditions: Aspergillus sp. of Table 12, caspofungin read as MEC
[15] = system: Fusarium strains (Table 18); assay: MIC testing (CLSI M38-A2), Table 18; format: cell-based, Fusarium spp.
[16] = system: Fusarium strains; assay: MIC testing (CLSI M38-A2), Table 17; format: cell-based, Fusarium spp.; conditions: Fusarium strains (Table 17)
[17] = system: C. parapsilosis; assay: MIC testing (CLSI M27-A3); format: cell-based; design: MIC: unit not given beside the values
[18] = system: C. glabrata strains; assay: MFC determination; format: cell-based; design: MFC: unit not given beside the values
[19] = system: individual Aspergillus spp. (Table 13, species not given); assay: MIC testing (CLSI M38-A2), Table 13; format: cell-based; conditions: Aspergillus sp. of Table 13, caspofungin read as MEC
[20] = system: individual Aspergillus spp. (Table 14, species not named); assay: MFC determination, Table 14; format: cell-based; conditions: Aspergillus sp. of Table 14
[21] = system: Blastomyces dermatitidis, Coccidioides immitis, and Histoplasma capsulatum strains; format: cell-based; conditions: dimorphic fungal isolates; in µg/mL
[22] = system: C. tropicalis; assay: MFC determination; format: cell-based; conditions: C. tropicalis
[23] = system: individual Aspergillus spp. (Table 12, species not named); assay: MFC determination, Table 12; format: cell-based; conditions: Aspergillus sp. of Table 12
[24] = system: all Aspergillus strains tested; assay: MIC testing (CLSI M38-A2), summary; format: cell-based; conditions: caspofungin read as MEC
[25] = system: all Aspergillus strains tested; assay: MFC determination, summary; format: cell-based
[26] = individual C. albicans strain with elevated MICs to non-polyene comparators (Table 22), listed as Cas
[27] = individual C. glabrata strain with elevated MICs to non-polyene comparators (Table 22), listed as Cas

CC[C@H](C)C[C@H](C)CCCCCCCCC(=O)N[C@H]1C[C@@H](O)[C@@H](NCCN)NC(=O)[C@@H]2[C@@H](O)CCN2C(=O)[C@H]([C@H](O)CCN)NC(=O)[C@H]([C@H](O)[C@@H](O)c2ccc(O)cc2)NC(=O)[C@@H]2C[C@@H](O)CN2C(=O)[C@H]([C@@H](C)O)NC1=O [Caspofungin, caspofungin]
MIC Range ([1]; in µg/mL): 0.25-1 | MIC50 ([1]; inhibits 50% of strains): 0.25 µg/mL (≈ 0.229 µM) | MIC90 ([1]; inhibits 90% of strains): 0.5 µg/mL (≈ 0.457 µM) | MIC Range ([2]; C. krusei strains, in µg/mL): 0.5-16 | MIC50 ([2]; C. krusei, inhibits 50% of strains): 1 µg/mL (≈ 0.915 µM) | MIC90 ([2]; C. krusei, inhibits 90% of strains): 4 µg/mL (≈ 3.66 µM) | MIC ([2]; individual C. krusei strain with elevated MICs to non-polyene comparators (Table 22)): 16 µg/mL (≈ 14.6 µM) | MFC Range ([3]; Fluconazole-susceptible C. albicans n = 13, in µg/mL): 0.5-32 | MFC50 ([3]; Fluconazole-susceptible C. albicans n = 13, kills 50% of strains): 0.25 µg/mL (≈ 0.229 µM) | MFC90 ([3]; Fluconazole-susceptible C. albicans n = 13, kills 90% of strains): 2 µg/mL (≈ 1.83 µM) | MFC [3, 26]: >32 (2×) and 32 | MIC50 ([4]; inhibits 50% of strains): 4 µg/mL (≈ 3.66 µM) | MIC90 ([4]; inhibits 90% of strains): 32 µg/mL (≈ 29.3 µM) | MIC Range ([5]; C. glabrata strains, in µg/mL): 0.25-8 | MIC50 ([5]; C. glabrata, inhibits 50% of strains): 0.5 µg/mL (≈ 0.457 µM) | MIC90 ([5]; C. glabrata, inhibits 90% of strains): 2 µg/mL (≈ 1.83 µM) | MIC [5, 27]: 2 (2×) and 1 and 4 and 8 | MIC Range ([6]; Cr. neoformans strains, 72 h, in µg/mL): 1-16 | MIC50 ([6]; Cr. neoformans, inhibits 50% of strains): 16 µg/mL (≈ 14.6 µM) | MIC90 ([6]; Cr. neoformans, inhibits 90% of strains): 16 µg/mL (≈ 14.6 µM) | MIC Range ([7]; in µg/mL): 0.06-16 | MIC50 ([7]; inhibits 50% of strains): 0.5 µg/mL (≈ 0.457 µM) | MIC90 ([7]; inhibits 90% of strains): 2 µg/mL (≈ 1.83 µM) | MIC [8]: 0.25 µg/mL (≈ 0.229 µM) | MIC Range ([9]; Fluconazole-resistant C. albicans n = 7): 0.125-2 | MIC Range ([9]; Fluconazole-susceptible C. albicans n = 13): 0.125-0.25 | MIC50 ([9]; Fluconazole-susceptible C. albicans n = 13, inhibits 50% of strains): 0.25 µg/mL (≈ 0.229 µM) | MIC90 ([9]; Fluconazole-susceptible C. albicans n = 13, inhibits 90% of strains): 0.25 µg/mL (≈ 0.229 µM) | MIC [9, 26]: 1 (2×) and 2 | MIC Range ([10]; in µg/mL): 0.125-2 | MIC50 ([10]; inhibits 50% of strains): 0.125 µg/mL (≈ 0.114 µM) | MIC90 ([10]; inhibits 90% of strains): 0.25 µg/mL (≈ 0.229 µM) | MFC50 ([11]; kills 50% of strains): 16 µg/mL (≈ 14.6 µM) | MFC90 ([11]; kills 90% of strains): > 32 µg/mL | MIC Range ([12]; C. tropicalis strains, in µg/mL): 0.06-2 | MIC50 ([12]; C. tropicalis, inhibits 50% of strains): 0.25 µg/mL (≈ 0.229 µM) | MIC90 ([12]; C. tropicalis, inhibits 90% of strains): 0.5 µg/mL (≈ 0.457 µM) | MIC [13]: 0.25 µg/mL (≈ 0.229 µM) | MIC Range ([14]; in µg/mL): 0.125-8 | MIC50 ([14]; inhibits 50% of strains): 0.25 µg/mL (≈ 0.229 µM) | MIC90 ([14]; inhibits 90% of strains): 0.5 µg/mL (≈ 0.457 µM) | MIC50 ([15]; inhibits 50% of strains): > 32 µg/mL | MIC90 ([15]; inhibits 90% of strains): > 32 µg/mL | MIC Range ([16]; in µg/mL): 1-64 | MIC50 ([16]; inhibits 50% of strains): 32 µg/mL (≈ 29.3 µM) | MIC90 ([16]; inhibits 90% of strains): 32 µg/mL (≈ 29.3 µM) | MIC Range ([17]; C. parapsilosis strains, in µg/mL): 0.25-2 | MIC50 ([17]; C. parapsilosis, inhibits 50% of strains): 0.5 µg/mL (≈ 0.457 µM) | MIC90 ([17]; C. parapsilosis, inhibits 90% of strains): 2 µg/mL (≈ 1.83 µM) | MIC ([17]; individual C. parapsilosis strain with elevated MICs to non-polyene comparators (Table 22), in µg/mL): 2 | MFC50 ([18]; C. glabrata, kills 50% of strains): 1 µg/mL (≈ 0.915 µM) | MFC90 ([18]; C. glabrata, kills 90% of strains): 32 µg/mL (≈ 29.3 µM) | MFC [18, 27]: 32 (3×) and 16 and >32 | MIC Range ([19]; in µg/mL): 0.25-1 | MIC50 ([19]; inhibits 50% of strains): 0.25 µg/mL (≈ 0.229 µM) | MIC90 ([19]; inhibits 90% of strains): 0.5 µg/mL (≈ 0.457 µM) | MFC50 ([20]; kills 50% of strains): > 32 µg/mL | MFC90 ([20]; kills 90% of strains): > 32 µg/mL | MIC Range [21]: 0.03-0.5 | MFC50 ([22]; kills 50% of strains): 32 µg/mL (≈ 29.3 µM) | MFC90 ([22]; kills 90% of strains): > 32 µg/mL | MFC50 ([23]; kills 50% of strains): > 32 µg/mL | MFC90 ([23]; kills 90% of strains): > 32 µg/mL | MIC Range ([24]; in µg/mL): 0.125-8 | MIC50 ([24]; inhibits 50% of strains): 0.25 µg/mL (≈ 0.229 µM) | MIC90 ([24]; inhibits 90% of strains): 0.5 µg/mL (≈ 0.457 µM) | MFC50 ([25]; kills 50% of strains): > 32 µg/mL | MFC90 ([25]; kills 90% of strains): > 32 µg/mL
